{
  "source": "patent US20240398793A1",
  "about": "“Methods of Treating Lymphedema” (Celltaxis, LLC, priority 2021, published 2024)",
  "origin": "cited, not measured here",
  "key": {"LTA4H aminopeptidase [1]": {"target": "T1, LTA4H aminopeptidase (Homo sapiens (Human), UniProt P09960)", "T1 sequence (P09960 whole entry)": "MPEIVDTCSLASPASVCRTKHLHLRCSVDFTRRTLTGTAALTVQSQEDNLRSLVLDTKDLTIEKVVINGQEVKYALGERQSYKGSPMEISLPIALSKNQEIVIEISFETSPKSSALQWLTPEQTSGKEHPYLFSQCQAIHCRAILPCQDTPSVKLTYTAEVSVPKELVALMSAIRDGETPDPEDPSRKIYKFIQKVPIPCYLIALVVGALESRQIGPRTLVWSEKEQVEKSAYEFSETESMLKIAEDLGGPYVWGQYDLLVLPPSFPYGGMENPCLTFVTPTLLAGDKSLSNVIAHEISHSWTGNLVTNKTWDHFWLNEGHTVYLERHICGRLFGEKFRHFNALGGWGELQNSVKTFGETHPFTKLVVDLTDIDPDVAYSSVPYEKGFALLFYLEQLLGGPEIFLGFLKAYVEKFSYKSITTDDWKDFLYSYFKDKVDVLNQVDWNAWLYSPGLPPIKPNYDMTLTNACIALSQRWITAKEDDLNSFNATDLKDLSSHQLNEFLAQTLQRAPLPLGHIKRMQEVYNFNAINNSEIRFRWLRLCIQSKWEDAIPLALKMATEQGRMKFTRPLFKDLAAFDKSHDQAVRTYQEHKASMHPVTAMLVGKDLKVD", "conditions": "read-out: Aminopeptidase IC50 ± SEM; cited from earlier work"}, "LTA4H epoxide hydrolase": {"target": "LTA4H epoxide hydrolase (Homo sapiens (Human), UniProt P09960)", "sequence (P09960 whole entry)": "as above", "conditions": "read-out: EH (Epoxide Hydrolase) IC50 ± SEM; cited from earlier work"}, "human lymphedema": {"system": "human lymphedema", "conditions": "adult lymphedema subjects, open-label and placebo-controlled pilot; cited from earlier work"}, "[2]": {"system": "experimental acquired lymphedema", "conditions": "cited from earlier work"}, "LTA4H aminopeptidase [3]": {"target": "T1, LTA4H aminopeptidase", "conditions": "Bhatt et al. (2017); Inoi et al. (1995); cited from earlier work"}, "[4]": {"system": "lymphedema of the lower limb", "conditions": "Phase 2, lymphedema of the lower limb; cited from earlier work"}, "aminopeptidases": {"system": "aminopeptidases", "conditions": "Bhatt et al. (2017); Inoi et al. (1995); cited from earlier work"}},
  "note": "“Also recorded” adds a separate entry of the source.",
  "data": [
    {"smiles": "CC(=O)Oc1ccc(/C=C/c2cc(OC(C)=O)cc(OC(C)=O)c2)cc1", "note": "[Compound 4]", "values": [
      {"measurement": "IC50", "setting": "LTA4H aminopeptidase [1]", "result": "> 100", "unit": "µM"}
    ]},
    {"smiles": "CCOc1cc(O)cc(CCc2ccc(O)cc2)c1", "note": "[Compound 7]", "values": [
      {"measurement": "IC50", "setting": "LTA4H aminopeptidase [1]", "result": "> 100", "unit": "µM"}
    ]},
    {"smiles": "O=C(Cc1ccc(O)cc1)c1ccc(O)cc1O", "note": "[Compound 10]", "values": [
      {"measurement": "IC50", "setting": "LTA4H aminopeptidase [1]", "result": "> 100", "unit": "µM"}
    ]},
    {"smiles": "COc1cc(O)cc(CCc2cccc(O)c2)c1", "note": "[Compound 8]", "values": [
      {"measurement": "IC50", "setting": "LTA4H aminopeptidase [1]", "result": "> 100", "unit": "µM"}
    ]},
    {"smiles": "COc1cc(O)cc(CCc2ccccc2O)c1", "note": "[Compound 9]", "values": [
      {"measurement": "IC50", "setting": "LTA4H aminopeptidase [1]", "result": "> 100", "unit": "µM"}
    ]},
    {"smiles": "COc1cc(O)cc(CCc2ccc(O)cc2)c1", "note": "[Compound 6]", "values": [
      {"measurement": "IC50", "setting": "LTA4H aminopeptidase [1]", "result": "> 100", "unit": "µM"}
    ]},
    {"smiles": "O=c1c(-c2ccc(O)cc2)coc2c(O)cccc12", "note": "[Compound 12]", "values": [
      {"measurement": "IC50", "setting": "LTA4H epoxide hydrolase", "result": "7.3 ± 0.8", "unit": "µM"},
      {"measurement": "IC50", "setting": "LTA4H aminopeptidase [1]", "result": "62.7 ± 13.3", "unit": "µM"}
    ]},
    {"smiles": "CC(C(=O)O)c1cccc(C(=O)c2ccccc2)c1", "note": "(stereo not shown) [ketoprofen]", "values": [
      {"measurement": "skin thickness and cutaneous histopathology", "setting": "human lymphedema", "result": "salutary effects; also recorded: improve skin thickness"},
      {"measurement": "lymphedema disease burden", "setting": "[2]; mice, systemic administration", "result": "documented reversal of disease burden; also recorded: disease burden was reversed"}
    ]},
    {"smiles": "O=c1c(-c2ccc(O)cc2)coc2cc(O)ccc12", "note": "[Compound 11]", "values": [
      {"measurement": "IC50", "setting": "LTA4H aminopeptidase [1]", "result": "> 100", "unit": "µM"}
    ]},
    {"smiles": "CC(C)C[C@H](NC(=O)[C@@H](O)[C@H](N)Cc1ccccc1)C(=O)O", "note": "[Ubenimex]", "values": [
      {"measurement": "LTA4H selectivity", "setting": "LTA4H aminopeptidase [3]", "result": "non-selective LTA4H inhibitor"},
      {"measurement": "edema, lymphatic function, lymphatic architecture", "setting": "[2]; murine model of lymphedema", "result": "reversed edema, improved lymphatic function, and restored lymphatic architecture"},
      {"measurement": "improvement in skin thickness, limb volume and bioimpedance over placebo", "setting": "[4]", "result": "did not identify an improvement"},
      {"measurement": "aminopeptidase inhibition spectrum", "setting": "aminopeptidases", "result": "broad spectrum aminopeptidase inhibitor"}
    ]},
    {"smiles": "Cc1ccc2c(=O)c(-c3ccc(O)cc3)coc2c1O", "note": "[Compound 15]", "values": [
      {"measurement": "IC50", "setting": "LTA4H aminopeptidase [1]", "result": "69.2 ± 10.9", "unit": "µM"}
    ]},
    {"smiles": "O=c1c(-c2ccccc2)coc2cc(O)ccc12", "note": "[Compound 13]", "values": [
      {"measurement": "IC50", "setting": "LTA4H aminopeptidase [1]", "result": "> 100", "unit": "µM"}
    ]},
    {"smiles": "O=c1c(-c2ccc(O)cc2)coc2c3c(ccc12)OCO3", "note": "[Compound 14]", "values": [
      {"measurement": "IC50", "setting": "LTA4H epoxide hydrolase", "result": "20.6 ± 24", "unit": "µM"},
      {"measurement": "IC50", "setting": "LTA4H aminopeptidase [1]", "result": "20.6 ± 3.3", "unit": "µM"}
    ]}
  ]
}
